Test results published in patent US5304474A, “Hydrophobic peptide esters and amides” (Board of Regents, The University of Texas System, priority 1991, dated 1994).

Key:
[1] = system: production of a TCA insoluble product from [^3 H]Leu-Leu-OMe; format: cell-based, human; details: Expt. 1; Cycloheximide 100 micro-g/ml, PMSF 1 micro-M, Iodoacetamide 0.5 micro-M; Nil 2,160 + 193
From the text: Iodoacetamide nonspecifically binds covalently to free sulfhydryl groups and thereby inhibits thiol protease function as well as other enzymatic reactions dependent on the presence of reduced sulfhydryl groups.

[2] = system: [^3 H]Leu-Leu-OMe uptake by PBL (facilitated transport); test: Competitive inhibition of [3H]Leu-Leu-OMe uptake; format: cell-based, human; details: for inhibition at 250 µM: Homo sapiens, unlabeled compound 250 microM, [3H]Leu-Leu-OMe 10 microM (Table 5)
Method: Human peripheral blood lymphocytes (PBL) were incubated in the presence of [^3 H]labeled Leu-Leu-OMe at 22° C. for varying lengths of time. The incubation mixture was then centrifuged through silicone oil to separate the cells from any unbound or non-internalized [^3 HLeu-Leu-OMe. […] At 37° C., levels of [^3 H]Leu-Leu-OMe accumulation by PBL were increased above those seen at 22° C. (see Table 4).

[3] = molecular target: dipeptidyl peptidase I (DPPI) (Bos taurus, UniProt Q3ZCJ8); test: Dipeptidyl peptidase I catalyzed lysis of human RBC; format: cell-based, bovine; details: FIG. 12, FIG. 13
Chain of dipeptidyl peptidase I (DPPI) (Q3ZCJ8 231-394 limits assumed): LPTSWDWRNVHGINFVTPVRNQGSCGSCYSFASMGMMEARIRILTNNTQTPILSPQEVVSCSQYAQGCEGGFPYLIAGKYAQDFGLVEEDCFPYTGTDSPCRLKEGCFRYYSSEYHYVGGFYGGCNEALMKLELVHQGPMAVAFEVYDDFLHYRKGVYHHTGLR
Chain of dipeptidyl peptidase I (DPPI) (Q3ZCJ8 25-134 limits assumed): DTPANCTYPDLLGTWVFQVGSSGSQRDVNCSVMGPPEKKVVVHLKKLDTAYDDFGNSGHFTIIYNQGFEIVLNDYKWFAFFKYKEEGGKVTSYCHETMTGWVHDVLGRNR
Chain of dipeptidyl peptidase I (DPPI) (Q3ZCJ8 395-463 limits assumed): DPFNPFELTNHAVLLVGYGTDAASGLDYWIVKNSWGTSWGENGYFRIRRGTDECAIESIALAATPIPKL
Method: The following experiments were carried out to determine whether DPPI could generate a lytic product from Leu-Leu-OMe. In the experiment detailed in FIG. 12, ^51 Cr-labeled human erythrocytes (RBC) were incubated with varying concentrations of Leu-Leu-OMe alone or in the presence of purified bovine DPPI.
In the experiments detailed in FIG. 13, ^51 Cr-labeled RBC's were exposed to various dipeptide esters or amides in the presence or absence of purified DPPI. […] The first observation is probably related to the inability of this enzyme to catalyze transpeptidation of peptide esters containing D-stereoisomers of amino acids. The latter observations are likely to be related to the fact that polymers of Ser-Leu or Leu-Tyr are not hydrophobic and therefore unlikely to enter and disrupt cell membranes.

[4] = system: natural killer cells (NK); test: NK function: lysis of K562 target cells (51Cr release) after preincubation of lymphocytes with compound; details: for NK toxicity / effect on NK function, in words: lymphocytes exposed 15 minutes at room temperature (FIG. 4, FIG. 5)
Method: PBM were separated from heparinized venous blood of healthy donors by centrifugation over sodium diatrizoate-Ficoll gradients (Isolymph, Gallard-Schlesinger Chemical Mfg. Corp., Carle Place, N.Y.).
All cell exposures to the amino acids, dipeptides or their methyl esters were carried out by suspending cells in Dulbecco's phosphate buffered saline (PBS) and incubating them at room temperature with the reagent at the indicated concentration and time interval.
Percent of control cytotoxicity was calculated using the formula: [formula]

[5] = system: natural killer cells (NK); details: previous experiments (Thiele et al. 1985); cited from earlier work

O=S(=O)(F)Cc1ccccc1 [PMSF, phenylmethylsulfonylfluoride]
[^3 H]Leu--Leu--OMe Incorporation, 10% TCA Precipitate [1]: 2,078 + 213 cpm

CC(C)C[C@H](NC(=O)[C@@H](N)CC(C)C)C(=O)O [Leu-Leu, L-leucyl L-leucine, reference compound]
competitive inhibition of [3H]Leu-Leu-OMe uptake, in words [2]: competitively inhibited
inhibition at 250 µM [2]: 44%
RBC lysis in the presence of purified DPPI, in words [3]: not polymerized by DPPI to form a product capable of lysing RBC's
NK toxicity / effect on NK function, in words [4]: had no inhibitory effect

COC(=O)[C@@H](N)C(C)C [Val-OMe]
deletion of NK function from human PBM [5]: did not delete NK function from human PBM

COC(=O)[C@@H](CC(C)C)NC(=O)[C@H](N)CC(C)C [D-Leu-D-Leu-OMe]
competitive inhibition of [3H]Leu-Leu-OMe uptake, in words [2]: do not competitively inhibit PBL uptake of L-Leu-L-Leu-OMe
inhibition at 250 µM [2]: 7%
RBC lysis in the presence of purified DPPI, in words [3]: unable to produce a membrane active metabolite
effect on Leu-Leu-OMe mediated NK toxicity ([4]; added with Leu-Leu-OMe): had no effect on Leu-Leu-OMe mediated NK toxicity
NK toxicity / effect on NK function, in words [4]: had no inhibitory effect
